Consider five molecules from article PMC2576538 (The Journal of Biological Chemistry, 2008).

Ends that are not written are not given here. * marks the point of attachment. Biotin = O=C1N[C@H]2[C@H](CS[C@H]2CCCCC(=O)*)N1

Test [1] deals with Cpe30 peptide. The class given is binding, Clostridium perfringens.
The target in test [2] is Biotin-Cpe30 (Clostridium perfringens) (UniProt P01558). Nature of the test: SPR.
Test [3] concerns the target Cpe17 (last C-terminal 17 amino acids of Cpe), biotinylated (Clostridium perfringens) (UniProt P01558). Nature of the test: SPR. On the technique in general: Surface plasmon resonance follows binding to a sensor surface in real time, without labels.
Test [4] has as its target T1, GST-claudin-4, full length (mouse, UniProt O35054 1-210).
T1 sequence: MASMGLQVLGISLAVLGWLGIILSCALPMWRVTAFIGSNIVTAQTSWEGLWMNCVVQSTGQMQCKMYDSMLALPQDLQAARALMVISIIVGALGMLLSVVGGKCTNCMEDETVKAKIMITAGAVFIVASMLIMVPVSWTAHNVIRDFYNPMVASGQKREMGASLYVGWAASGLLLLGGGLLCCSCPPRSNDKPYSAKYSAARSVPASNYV
Nature of the test: SPR.

“(138)AHNVIRDFYNPM VASGQKREMGASL(160) [B-Ecl2]”: the “Binding of immobilized Ecl2 peptide to Cpe30, in words” value (“Binding of immobilized Ecl2 peptide” for short) in test [1] is “does not bind”.

Take “GST-Cldn-4.R4 (GST fused to claudin-4 from Ecl2 through the C terminus) (domain or fragment)”: the values for the dissociation constant (Kd) in test [2] and in test [3] were 2.56 nM and 1.57 nM, respectively. Regarding AHNVIRDFYNPMVASGQKREMGASL [B-Ecl2-B], in test [1], the “Binding of immobilized Ecl2 peptide” value is recorded as “does not bind”. For the molecule “AHNVIRDFYNPMVASGQKREMGASL (disulfide (positions not given here)) [B-lariat-Ecl2]”, the “Binding of immobilized Ecl2 peptide” value in test [1] is recorded as “does not bind”. As for Biotin-SLDAGQYVLVMKANSSYSGNYPYSILFQKF [Biotin-Cpe30], the binding result in test [4] is “binds”.

What is called Kd is the free concentration of one partner at which half of the binding sites on the other are occupied at equilibrium, for simple one-to-one binding.
